# Laboratory results taken from patent publication US20230416329A1, “A PEPTIDE WITH DISULFIDE BONDS AND INHIBITORY ACTIVITY AGAINST SERINE PROTEASES, DERIVED HYBRID PEPTIDES THEREOF, AND USES THEREOF” (INSTITUTE OF MATERIA MEDICA , CHINESE ACADEMY OF MEDICAL …, priority 2020, published 2023).
# Bridge positions count the residues as written; N and C are the ends. Ends that are not written are not given here. Peptide text beside a SMILES is read from it.
# Legend:
# chymotrypsin = chymotrypsin (Bos taurus, UniProt P00766); experiment: in vitro
# Outline: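 Peptide and 0.05 μg/μL chymotrypsin were preincubated at 37 °C for 5 min, then mixed. Aliquots taken from 1.5 up to 60.0 min were quenched with 10% TFA, and remaining peptide was measured as RP-HPLC peak area.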
# trypsin = target: T1, trypsin (Bos taurus, UniProt P00760); experiment: in vitro; details: for Remaining peak area (%)/Trypsin: 0 h
# T1 sequence (P00760 24-246): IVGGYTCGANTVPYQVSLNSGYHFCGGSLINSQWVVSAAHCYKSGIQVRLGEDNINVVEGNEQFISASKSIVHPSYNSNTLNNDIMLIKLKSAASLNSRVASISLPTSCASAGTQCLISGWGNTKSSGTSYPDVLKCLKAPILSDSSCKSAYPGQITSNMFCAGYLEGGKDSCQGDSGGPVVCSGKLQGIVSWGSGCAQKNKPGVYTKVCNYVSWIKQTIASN
# Outline: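 Peptides were preincubated for 5 min at 37 °C and then digested with 0.05 μg/μL trypsin solution (stock). Remaining intact peptide was quantified as RP-HPLC peak area.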
# rats = experiment: Hypo-calcifying effect of salmon calcitonin and analogues, blood calcium concentration in rats; assay type: in vivo, rat; details: sCat and CalM subcutaneous, capsule form Cal BT 1 umol/kg p.o., 0-24 h
# Procedure: FIG. 24. The blood calcium concentration percentage-time curve of rat.
# (§1) Rats were fasted for 12 hours with water ad libitum before the experiment. The animals were randomly divided into 4 groups (5 animals in each group). The normal control group was injected with normal saline solution, and the commercially available salmon Calcitonin (sCat) and synthetic Calcitonin analog (CalM) were injected subcutaneously. The capsule form Cal BT (1 umol/kg, p.o.) was administered by gavage.
# Take blood from the inner canthus of rats at the predetermined time points: 0, 2, 3, 4, 6, 8, 12, and 24 h later, with at least 0.2 mL of blood taken each time. The blood sample was placed at 4° C. for stratification and centrifuged at 3000 rpm for 10 minutes. The serum was separated and measured for serum calcium ion concentration.
# The serum calcium ion concentration at 0 h was considered as baseline, the blood calcium concentration at other time was converted into the percentage ratio of baseline. The blood calcium curve was drawn with time as the X axis and the percentage of blood calcium concentration (%) as the Y axis.
# [1] = rat, in vivo
# Procedure: as §1
# mouse ear swelling = experiment: Croton oil mouse ear swelling, IL-17A inhibitory peptide administered subcutaneously; assay type: in vivo; details: subcutaneous, peptides 30 mg/kg, Secukinumab 5 mg/kg
# Procedure: IL-17A is an inflammatory factor in many chronic inflammatory reactions. In order to quickly evaluate and analyze its anti-inflammatory effects, a mouse ear swelling model was first used for preliminary screening of anti-inflammatory activities. The experimental process is as follows. Kunming male mice (18-20 g, n=10) were labeled with picric acid. All mice in each group were coated with 10 μL croton oil on both sides of the right ear. Immediately after modeling, the positive drugs Secukinumab group (5 mg/kg), inhibitory peptides 17A, 17A-BT, 17A-CH, and 17A-EC (30 mg/kg) were subcutaneously injected. The model control group (Con) was injected with a corresponding volume of physiological saline. After causing inflammation for 4 hours, the mice in each group were killed for cervical dislocation, and then the ear pieces were punched in the symmetrical parts of the left and right ears with a hole punch. The weight was weighed and recorded. The swelling degree and swelling rate were calculated:
# Swelling rate=((right ear mass−left ear mass)/left ear mass)*100%
# [2] = target: T2, interaction of PCSK9-LDLR (Homo sapiens, UniProt Q8NBP7); experiment: PCSK9-LDLR in vitro binding assay (inhibitory rate); details: in vitro
# T2 construct: purchased MBL Company, Beijing, China CY-8150
# Outline: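 Polypeptide (final 50 μM) pre-incubated 20 min at room temperature with PCSK9 (final 75 ng/mL), then run in a PCSK9-LDLR binding kit read at OD450/540 nm. Inhibition rate calculated relative to a solvent control (water or DMSO) lacking polypeptide.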
# [3] = test system: P407-induced hyperlipidemia mice; experiment: Subcutaneous injection of PCSK9 inhibitory peptide, serum total cholesterol in P407-induced hyperlipidemia mice; assay type: in vivo, mouse; details: for serum total cholesterol (TC) level after subcutaneous injection (in words): 2 μmol/kg single s.c., P407-induced hyperlipidemia mice
# Outline: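 ICR mice, fasted overnight, received intraperitoneal P407 at 500 mg/kg. After 24 h they received subcutaneous peptide at 2 μmol/kg in 20% PEG400; vehicle-treated and normal groups served as controls. Serum total cholesterol was measured at various times after dosing.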
# [4] = test system: P407 induced hyperlipidemia mice; experiment: Duodenal injection of PCSK9 inhibitory peptide, serum total cholesterol in P407 induced hyperlipidemia mice; assay type: in vivo, mouse
# Procedure: The experimental polypeptide sample was prepared using PEG400 with a final concentration of 20 μmol/kg and the final concentration of PEG400 is 50% (w/v). The control group was saline containing PEG400 (50%).
# Normal ICR mice were fasted overnight with water ad libitum. The next day, all of the mice were intraperitoneally injected with poloxamer 407 (P407, 500 mg/kg) to establish a model of lipid metabolism disorder. Six mice were intraperitoneally injected with saline as a normal control (Nor). Normal feeding resumed after 2 hours. The model animals were randomly divided into model group (Con) and polypeptide groups according to body weight, and the blood was collected from tail tip (0 min). Then, the animals were anesthetized with ether for duodenal exposure surgery. At the same time, a sample or saline containing PEG400 was injected through the duodenum. Finally, the wound was sutured. The blood was collected from tail tip at 15, 30, 60, and 90 minutes after administration to determine the serum total cholesterol level.
# [5] = isolated enzyme chymotrypsin, pH 7.8, Remaining peak area (%)/chymotrypsin
# [6] = isolated enzyme trypsin, pH 7.8
compound,measurement,setting,value
CC[C@H](C)[C@@H]1NC(=O)[C@@H]2CCCN2C(=O)[C@@H]2CCCN2C(=O)[C@H]([C@@H](C)CC)NC(=O)[C@H](CO)NC(=O)[C@H](CCCCN)NC(=O)[C@H]([C@@H](C)O)NC(=O)[C@H](C)NC(=O)[C@H](CCCNC(=N)N)NC(=O)[C@H](C)NC(=O)[C@@H](NC(=O)CNC(=O)[C@@H]2CCCN2C(=O)[C@@H](NC(=O)CNC(=O)[C@H](CO)NC(=O)CNC(=O)[C@@H](NC(=O)[C@H](CC(N)=O)NC(=O)[C@@H](NC(=O)[C@H](CCCNC(=N)N)NC(=O)[C@@H]2CCCN2C(=O)[C@H](Cc2ccc(O)cc2)NC(=O)[C@@H](NC(=O)[C@H](CCC(N)=O)NC(=O)[C@H](CC(C)C)NC(=O)[C@H](CCCCN)NC(=O)[C@H](Cc2c[nH]cn2)NC(=O)[C@H](C)NC(=O)[C@H](CCC(=O)O)NC(=O)[C@H](CCC(N)=O)NC(=O)[C@H](CO)NC(=O)[C@H](CC(C)C)NC(=O)[C@H](CCCCN)NC(=O)CNC(=O)[C@H](CC(C)C)NC(=O)CNC(=O)[C@@H]2CSSC[C@H](N)C(=O)N[C@@H](CO)C(=O)N[C@@H](CC(N)=O)C(=O)N[C@@H](CC(C)C)C(=O)N[C@@H](CO)C(=O)N[C@@H]([C@@H](C)O)C(=O)N2)[C@@H](C)O)[C@@H](C)O)[C@@H](C)O)[C@@H](C)O)CSSC[C@@H](C(=O)N[C@@H](Cc2ccccc2)C(=O)O)NC1=O [Cal-BT],stability towards chymotrypsin hydrolysis (in words),chymotrypsin,high tolerance to chymotrypsin
same,Remaining peak area (%)/chymotrypsin,chymotrypsin; 0 h,100.0 ± 0.0%
same,"remaining at 0.025 h, 60 μM",chymotrypsin; [5],86.3 ± 9%
same,"remaining at 0.05 h, 60 μM",chymotrypsin; [5],83.9%
same,"remaining at 0.075 h, 60 μM",chymotrypsin; [5],73.1 ± 1.7%
same,"remaining at 0.1 h, 60 μM",chymotrypsin; [5],71.8 ± 1.1%
same,"remaining at 0.15 h, 60 μM",chymotrypsin; [5],70 ± 3%
same,"remaining at 0.25 h, 60 μM",chymotrypsin; [5],61.3%
same,"remaining at 0.5 h, 60 μM",chymotrypsin; [5],58.9 ± 2.3%
same,"remaining at 1 h, 60 μM",chymotrypsin; [5],46 ± 1.3%
same,stability towards trypsin hydrolysis (in words),trypsin,resistant to the corresponding protease degradation
same,Remaining peak area (%)/Trypsin,trypsin,100.0 ± 0.0%
same,"remaining at 0.025 h, 60 μM",trypsin; [6],84.2 ± 5.6%
same,"remaining at 0.05 h, 60 μM",trypsin; [6],87.8 ± 1%
same,"remaining at 0.075 h, 60 μM",trypsin; [6],71.4 ± 0.9%
same,"remaining at 0.1 h, 60 μM",trypsin; [6],74.3 ± 3.4%
same,"remaining at 0.15 h, 60 μM",trypsin; [6],77.1 ± 8.4%
same,"remaining at 0.25 h, 60 μM",trypsin; [6],69.4 ± 6.5%
same,"remaining at 0.5 h, 60 μM",trypsin; [6],69.5 ± 6.6%
same,"remaining at 1 h, 60 μM",trypsin; [6],68.2 ± 8.4%
same,blood calcium concentration (in words),rats,did not effectively reduce the blood calcium concentration of rats within 24 h after administration
same,blood calcium concentration (in words),rats; listed as Cal BT,did not effectively reduce the concentration of calcium ions in rats
same,Body weight (g) X ± SD End,[1],158.9 ± 3.2 g
same,Body weight (g) X ± SD Start,[1],176.1 ± 5.1 g
same,Changes of body weight (%),[1],−9.80%
CC(C)C[C@H](NC(=O)CNC(=O)[C@@H]1CSSC[C@H](N)C(=O)N[C@@H](CO)C(=O)N[C@@H](CC(N)=O)C(=O)N[C@@H](CC(C)C)C(=O)N[C@@H](CO)C(=O)N[C@@H]([C@@H](C)O)C(=O)N1)C(=O)NCC(=O)N[C@@H](CCCCN)C(=O)N[C@@H](CC(C)C)C(=O)N[C@@H](CO)C(=O)N[C@@H](CCC(N)=O)C(=O)N[C@@H](CCC(=O)O)C(=O)N[C@@H](C)C(=O)N[C@@H](Cc1c[nH]cn1)C(=O)N[C@@H](CCCCN)C(=O)N[C@@H](CC(C)C)C(=O)N[C@@H](CCC(N)=O)C(=O)N[C@H](C(=O)N[C@@H](Cc1ccc(O)cc1)C(=O)N1CCC[C@H]1C(=O)N[C@@H](CCCNC(=N)N)C(=O)N[C@H](C(=O)N[C@@H](CC(N)=O)C(=O)N[C@H](C(=O)NCC(=O)N[C@@H](CO)C(=O)NCC(=O)N[C@H](C(=O)N1CCC[C@H]1C(=O)O)[C@@H](C)O)[C@@H](C)O)[C@@H](C)O)[C@@H](C)O [CalM] (H-CSNLSTCGLGKLSQEAHKLQTYPRTNTGSGTP-OH; disulfide 1-7),"remaining at 1 h, 60 μM","chymotrypsin; isolated enzyme chymotrypsin, pH 7.8, prototype peptide remaining after chymotrypsin hydrolysis",~4.9%
same,stability towards trypsin hydrolysis (in words),trypsin,extremely unstable towards trypsin
same,Remaining peak area (%)/Trypsin,trypsin,100.0 ± 0.0%
same,"remaining at 0.025 h, 60 μM",trypsin; [6],9 ± 2.3%
same,"remaining at 0.05 h, 60 μM",trypsin; [6],0%
same,"remaining at 0.075 h, 60 μM",trypsin; [6],0%
same,"remaining at 0.1 h, 60 μM",trypsin; [6],0%
same,"remaining at 0.15 h, 60 μM",trypsin; [6],0%
same,Body weight (g) X ± SD End,[1],160.9 ± 4.7 g
same,Body weight (g) X ± SD Start,[1],180.2 ± 6.8 g
same,Changes of body weight (%),[1],−10.71%
Secukinumab: positive drug in the subcutaneous ear swelling test; anti IL-17A antibody,Swelling (%),mouse ear swelling; 4 hours after croton oil,72.54 ± 25.32 %
same,Swelling inhibitory (%),mouse ear swelling; vs model control,37.36%
Trp-Glu-Glu-Tyr-Leu-Asp-Tyr-Val-Gly-Phe-Cys-Thr-Tyr-Ser-Ile-Pro-Pro-Gln-Cys-Tyr-Gly-Thr-Val-Phe-Thr-Ser (WEEYLDYVGFCTYSIPPQCYGTVFTS; disulfide 11-19 (inferred)) [PCSK9_6CH],inhibitory activity on the interaction between PCSK9 and LDLR (in words),[2],good inhibitory activity on the interaction between PCSK9 and LDLR
same,inhibitory activity on the interaction between PCSK9 and LDLR (in words),[2]; listed as SEQ ID NO: 230,good inhibitory effects in vitro
same,serum total cholesterol (TC) level after subcutaneous injection (in words),[3],reduced serum TC level
same,serum total cholesterol (TC) level after subcutaneous injection (in words),[3]; listed as SEQ ID NO: 230,excellent lowering lipid (total cholesterol) activities in vivo
same,TC 15 min,"[3]; serum, subcutaneous 2 μmol/kg, 15 min after administration, mean ± sd",3201 ± 1389 µg/mL
same,TC 30 min,"[3]; serum, subcutaneous 2 μmol/kg, 30 min after administration, mean ± sd",3363 ± 865 µg/mL
same,TC 60 min,"[3]; serum, subcutaneous 2 μmol/kg, 60 min after administration, mean ± sd",2691 ± 979 µg/mL
same,TC 90 min,"[3]; serum, subcutaneous 2 μmol/kg, 90 min after administration, mean ± sd",2655 ± 954 µg/mL
same,hypolipidemic activity after duodenal administration (in words),"[4]; 20 μmol/kg, P407 induced hyperlipidemia mice",did not show hypolipidemic activity
same,TC 15 min,"[4]; serum, duodenal injection 20 μmol/kg, 15 min, mean ± sd",2742 ± 651 µg/mL
same,TC 30 min,"[4]; serum, duodenal injection 20 μmol/kg, 30 min, mean ± sd",3071 ± 590 µg/mL
same,TC 60 min,"[4]; serum, duodenal injection 20 μmol/kg, 60 min, mean ± sd",3127 ± 567 µg/mL
same,TC 90 min,"[4]; serum, duodenal injection 20 μmol/kg, 90 min, mean ± sd",2986 ± 650 µg/mL
